For series [1] the following is noted: 101.33 kPa, Liquid, Pycnometric method.
A short description of series [2]: xn = mol fraction of the nth substance listed. The note with it: Pycnometric method.

Molecules are shown by their SMILES. Numbers after ± are expanded uncertainties.

Regarding `Fc1cc(F)c(F)c(F)c1` [1,2,3,5-tetrafluorobenzene], the mass density in series [1] (296.3 K) is recorded as 1403 ± 37 kg/m3; in series [1] (325.9 K) it was 1352 ± 37 kg/m3.
As to `Fc1ccccc1` [fluorobenzene], the mass density is recorded as 1022 ± 16 kg/m3 in series [1] (296.2 K) and 985 ± 16 kg/m3 in series [1] (330.1 K).
As to `Fc1cc(F)cc(F)c1` [1,3,5-trifluorobenzene], the mass density in series [1] (297.2 K) turned out to be 1268 ± 36 kg/m3; in series [1] (324.9 K) it was 1225 ± 36 kg/m3.
For the compound `Fc1ccc(F)c(F)c1` [1,2,4-trifluorobenzene], the mass density came out at 1280 ± 36 kg/m3 in series [1] (296.6 K) and 1247 ± 36 kg/m3 in series [1] (330.7 K).
On to `Fc1cc(F)c(F)cc1F` [1,2,4,5-tetrafluorobenzene], for which the mass density was 1421 ± 36 kg/m3 in series [1] (296.7 K) and 1370 ± 36 kg/m3 in series [1] (327.4 K).
With `Fc1ccc(F)cc1` [1,4-difluorobenzene], the mass density in series [1] (296.1 K) is on record as 1146 ± 36 kg/m3; in series [1] (327.2 K), 1110 ± 36 kg/m3.
On to `Fc1cc(F)c(F)c(F)c1F` [pentafluorobenzene] + CCn1cc[n+](C)c1.O=S(=O)([N-]S(=O)(=O)C(F)(F)F)C(F)(F)F, for which the molar volume in series [2] (283.4 K, Liquid mixture 1, x1 = 0.715) is on record as 0.0001484 ± 6.2e-06 m3/mol; in series [2] (283.4 K, Liquid mixture 2, x1 = 0.997), 0.0001093 ± 4.8e-06 m3/mol; in series [2] (298.2 K, Liquid mixture 1, x1 = 0.704) it was 0.0001523 ± 6.2e-06 m3/mol; in series [2] (298.2 K, Liquid mixture 2, x1 = 0.998) it was 0.0001109 ± 4.8e-06 m3/mol; in series [2] (316.6 K, Liquid mixture 1, x1 = 0.696), 0.0001552 ± 6.2e-06 m3/mol; in series [2] (316.6 K, Liquid mixture 2, x1 = 0.997) it was 0.0001139 ± 4.8e-06 m3/mol. Also, the molar volume in series [2] (333.2 K, Liquid mixture 1, x1 = 0.681) is listed as 0.0001605 ± 6.2e-06 m3/mol; in series [2] (333.2 K, Liquid mixture 2, x1 = 1) it was 0.0001155 ± 4.8e-06 m3/mol; in series [2] (353.1 K, Liquid mixture 1, x1 = 0.669) it was 0.0001652 ± 6.2e-06 m3/mol; in series [2] (353.1 K, Liquid mixture 2, x1 = 1), 0.0001187 ± 4.8e-06 m3/mol; in series [2] (373 K, Liquid mixture 1, x1 = 0.657) it was 0.0001692 ± 6.2e-06 m3/mol; in series [2] (373 K, Liquid mixture 2, x1 = 1) it was 0.0001228 ± 4.8e-06 m3/mol.
Take `Fc1cc(F)c(F)c(F)c1F` [pentafluorobenzene]: the mass density came to 1511 ± 20 kg/m3 in series [1] (296.9 K) and 1453 ± 20 kg/m3 in series [1] (327.6 K).
Turning to `Fc1ccccc1F` [1,2-difluorobenzene], the results for the mass density in series [1] (296.2 K) and in series [1] (331.1 K) were 1156 ± 36 kg/m3 and 1117 ± 36 kg/m3, respectively.
As to `Fc1cccc(F)c1F` [1,2,3-trifluorobenzene], the mass density in series [1] (296 K) is recorded as 1292 ± 36 kg/m3; in series [1] (331.6 K), 1240 ± 36 kg/m3.
`Fc1ccc(F)c(F)c1F` [1,2,3,4-tetrafluorobenzene]: the mass density in series [1] (296.4 K) was 1408 ± 40 kg/m3; in series [1] (327.4 K), 1360 ± 40 kg/m3.
On to `Fc1cccc(F)c1` [1,3-difluorobenzene], for which the mass density in series [1] (296.2 K) stood at 1139 ± 36 kg/m3; in series [1] (330.6 K), 1094 ± 36 kg/m3.

A word on the mass density: it is mass per unit of volume.
